Structures can show the parent of a compound that is named as a salt.

One may read the melting point as the temperature, or range, at which the solid turns liquid.

In turn, `O=C(CCC1CCNCC1)Nc1nc2ccc(OS(=O)(=O)c3c(Cl)cccc3Cl)cc2s1` (as salt: benzenesulfonate) [Example 47, 2-[(3-Piperidin-4-ylpropanoyl)amino]-1,3-benzothiazol-6-yl 2,6-dichlorobenzenesulfonate] yielded a melting point of 134 °C. `O=C(CCCC1CCNCC1)Nc1nc2ccc(OS(=O)(=O)c3c(Cl)cccc3Cl)cc2s1` (as salt: benzenesulfonate) [Example 48, 2-[(4-Piperidin-4-ylbutanoyl)amino]-1,3-benzothiazol-6-yl 2,6-dichlorobenzenesulfonate] registered a melting point of 114 °C. The same measure for `O=C(NCCCN1CCOCC1)Nc1nc2ccc(OS(=O)(=O)c3c(Cl)cccc3Cl)cc2s1` (as salt: benzenesulfonate) [Example 53, 2-{[(3-morpholin-4-ylpropyl)carbamoyl]amino}-1,3-benzothiazol-6-yl 2,6-dichlorobenzenesulfonate]: 94 °C. `CN(CCCNC(=O)Nc1nc2ccc(OS(=O)(=O)c3c(Cl)cccc3Cl)cc2s1)c1ccccc1` (as salt: benzenesulfonate) [Example 54, 2-[({3-[methyl(phenyl)amino]propyl}carbamoyl)amino]-1,3-benzothiazol-6-yl 2,6-dichlorobenzenesulfonate] yielded a melting point of 68 °C.

`O=C(NCCN1CCC(Cc2ccccc2)CC1)Nc1nc2ccc(OS(=O)(=O)c3c(Cl)cccc3Cl)cc2s1` (as salt: benzenesulfonate) [Example 55, 2-({[2-(4-benzylpiperidin-1-yl)ethyl]carbamoyl}amino)-1,3-benzothiazol-6-yl 2,6-dichlorobenzenesulfonate]: the melting point amounted to 95 °C. As for `O=C(NCCN1CCCC1)Nc1nc2ccc(OS(=O)(=O)c3c(Cl)cccc3Cl)cc2s1` (as salt: benzenesulfonate) [Example 56, 2-{[(2-pyrrolidin-1-ylethyl)carbamoyl]amino}-1,3-benzothiazol-6-yl 2,6-dichlorobenzenesulfonate], the melting point turned out to be 99 °C. `O=C(Nc1nc2ccc(OS(=O)(=O)c3c(Cl)cccc3Cl)cc2s1)N1CCC[C@@H]1CN1CCCC1` (as salt: benzenesulfonate) [Example 57, 2-({[(2R)-2-(pyrrolidin-1-ylmethyl)pyrrolidin-1-yl]carbonyl}amino)-1,3-benzothiazol-6-yl 2,6-dichlorobenzenesulfonate] gave a melting point of 204 °C. For the molecule `O=C(Nc1nc2ccc(OS(=O)(=O)c3c(Cl)cccc3Cl)cc2s1)N1CCC[C@H]1CN1CCCC1` (as salt: benzenesulfonate) [Example 58, 2-({[(2S)-2-(pyrrolidin-1-ylmethyl)pyrrolidin-1-yl]carbonyl}amino)-1,3-benzothiazol-6-yl 2,6-dichlorobenzenesulfonate], the melting point was found to be 210 °C.

As for `O=C(NCCCN1CCCC1)Nc1nc2ccc(OS(=O)(=O)c3c(Cl)cccc3Cl)cc2s1` (as salt: benzenesulfonate) [Example 59, 2-{[(3-pyrrolidin-1-ylpropyl)carbamoyl]amino}-1,3-benzothiazol-6-yl 2,6-dichlorobenzenesulfonate], the melting point is 96 °C. The same measure for `CN1CCN(CCNC(=O)Nc2nc3ccc(OS(=O)(=O)c4c(Cl)cccc4Cl)cc3s2)CC1` (as salt: benzenesulfonate) [Example 60, 2-({[2-(4-methylpiperazin-1-yl)ethyl]carbamoyl}amino)-1,3-benzothiazol-6-yl 2,6-dichlorobenzenesulfonate]: 100 °C; for `CN1CCCC1CCNC(=O)Nc1nc2ccc(OS(=O)(=O)c3c(Cl)cccc3Cl)cc2s1` (stereo not shown) (as salt: benzenesulfonate) [Example 61, 2-({[2-(1-methylpyrrolidin-2-yl)ethyl]carbamoyl}amino)-1,3-benzothiazol-6-yl 2,6-dichlorobenzenesulfonate]: 178 °C.

For `CN(C)CCCNC(=O)Nc1nc2ccc(OS(=O)(=O)c3c(Cl)cccc3Cl)cc2s1` (as salt: benzenesulfonate) [Example 62, 2-({[3-(dimethylamino)propyl]carbamoyl}amino)-1,3-benzothiazol-6-yl 2,6-dichlorobenzenesulfonate], the melting point turned out to be 100 °C. In turn, `CC1CCCC(C)N1CCNC(=O)Nc1nc2ccc(OS(=O)(=O)c3c(Cl)cccc3Cl)cc2s1` (stereo not shown) (as salt: benzenesulfonate) [Example 63, 2-({[2-(2,6-dimethylpiperidin-1-yl)ethyl]carbamoyl}amino)-1,3-benzothiazol-6-yl 2,6-dichlorobenzenesulfonate] gave a melting point of 122 °C. On to `O=C(NCCN1CCCCC1)Nc1nc2ccc(OS(=O)(=O)c3c(Cl)cccc3Cl)cc2s1` (as salt: benzenesulfonate) [Example 64, 2-{[(2-piperidin-1-ylethyl)carbamoyl]amino}-1,3-benzothiazol-6-yl 2,6-dichlorobenzenesulfonate], for which the melting point was determined as 172 °C. With `O=C(NCCCN1CCCC1=O)Nc1nc2ccc(OS(=O)(=O)c3c(Cl)cccc3Cl)cc2s1` (as salt: benzenesulfonate) [Example 65, 2-({[3-(2-oxopyrrolidin-1-yl)propyl]carbamoyl}amino)-1,3-benzothiazol-6-yl 2,6-dichlorobenzenesulfonate], the melting point was 195 °C. With `CN(C)c1ccc(CNC(=O)Nc2nc3ccc(OS(=O)(=O)c4c(Cl)cccc4Cl)cc3s2)cc1` (as salt: benzenesulfonate) [Example 66, 2-({[4-(dimethylamino)benzyl]carbamoyl}amino)-1,3-benzothiazol-6-yl 2,6-dichlorobenzenesulfonate], the melting point is 154.5 °C.

`O=C(NCCCN1CCN(Cc2c(F)cccc2Cl)CC1)Nc1nc2ccc(OS(=O)(=O)c3c(Cl)cccc3Cl)cc2s1` (as salt: benzenesulfonate) [Example 67, 2-[({3-[4-(2-chloro-6-fluorobenzyl)piperazin-1-yl]propyl}carbamoyl)amino]-1,3-benzothiazol-6-yl 2,6-dichlorobenzenesulfonate]: the melting point came to 93 °C. Under `O=C(NCCCN1CCN(Cc2ccccc2)CC1)Nc1nc2ccc(OS(=O)(=O)c3c(Cl)cccc3Cl)cc2s1` (as salt: benzenesulfonate) [Example 68, 2-({[3-(4-benzylpiperazin-1-yl)propyl]carbamoyl}amino)-1,3-benzothiazol-6-yl 2,6-dichlorobenzenesulfonate] stands 218 °C. The molecule `CN1CCN(CCCNC(=O)Nc2nc3ccc(OS(=O)(=O)c4c(Cl)cccc4Cl)cc3s2)CC1` (as salt: benzenesulfonate) [Example 69, 2-({[3-(4-methylpiperazin-1-yl)propyl]carbamoyl}amino)-1,3-benzothiazol-6-yl 2,6-dichlorobenzenesulfonate] came in with a melting point of 96.5 °C. With `O=C(NCc1ccc(N2CCOCC2)cc1)Nc1nc2ccc(OS(=O)(=O)c3c(Cl)cccc3Cl)cc2s1` (as salt: benzenesulfonate) [Example 70, 2-{[(4-morpholin-4-ylbenzyl)carbamoyl]amino}-1,3-benzothiazol-6-yl 2,6-dichlorobenzenesulfonate], the melting point was determined as 177 °C. `O=C(Nc1nc2ccc(OS(=O)(=O)c3c(Cl)cccc3Cl)cc2s1)NC1CCCCCC1` (as salt: benzenesulfonate) [Example 72, 2-[(cycloheptylcarbamoyl)amino]-1,3-benzothiazol-6-yl 2,6-dichlorobenzenesulfonate]: the melting point was found to be 163 °C. On to `O=C(Nc1nc2ccc(OS(=O)(=O)c3c(Cl)cccc3Cl)cc2s1)NC1CCCC1` (as salt: benzenesulfonate) [Example 73, 2-[(cyclopentylcarbamoyl)amino]-1,3-benzothiazol-6-yl 2,6-dichlorobenzenesulfonate], for which the melting point stood at 249 °C. Under `CC(C)NC(=O)Nc1nc2ccc(OS(=O)(=O)c3c(Cl)cccc3Cl)cc2s1` (as salt: benzenesulfonate) [Example 74, 2-[(isopropylcarbamoyl)amino]-1,3-benzothiazol-6-yl 2,6-dichlorobenzenesulfonate] stands 169 °C; under `O=C(NCCN1CCCCCC1)Nc1nc2ccc(OS(=O)(=O)c3c(Cl)cccc3Cl)cc2s1` (as salt: benzenesulfonate) [Example 76, 2-{[(2-azepan-1-ylethyl)carbamoyl]amino}-1,3-benzothiazol-6-yl 2,6-dichlorobenzenesulfonate], 146 °C; under `O=C(NCc1cccnc1)Nc1nc2ccc(OS(=O)(=O)c3c(Cl)cccc3Cl)cc2s1` (as salt: benzenesulfonate) [Example 78, 2-{[(pyridin-3-ylmethyl)carbamoyl]amino}-1,3-benzothiazol-6-yl 2,6-dichlorobenzenesulfonate], 227 °C.

`O=C(NCCC1CCNCC1)Nc1nc2ccc(OS(=O)(=O)c3c(Cl)cccc3Cl)cc2s1` (as salt: trifluoroacetic acid salt) [Example 35, 2-{[(2-Piperidin-4-ylethyl)carbamoyl]amino}-1,3-benzothiazol-6-yl 2,6-dichlorobenzenesulfonate] showed a melting point of 240 °C. As for `Cc1cccc(Cl)c1S(=O)(=O)Oc1ccc2[nH]c(NC(=O)NCCN3CCOCC3)nc2c1` [Example 11, 2-{[(2-Morpholin-4-ylethyl)carbamoyl]amino}-1H-benzimidazol-5-yl 2-chloro-6-methylbenzenesulfonate], the melting point is 168 °C. Take `Nc1cc(Cl)cc(Cl)c1S(=O)(=O)Oc1ccc2nc(NC(=O)NCCN3CCOCC3)sc2c1` [Example 39, 2-{[(2-Morpholin-4-ylethyl)carbamoyl]amino}-1,3-benzothiazol-6-yl 2-amino-4,6-dichlorobenzenesulfonate]: the melting point turned out to be 128 °C.

For the origin of these results see patent publication US8110571B2, “Benzimidazole and benzothiazole derivatives, method for preparing same, use thereof as drugs, pharmaceutical compositions and novel use especially as c-MET inhibitors” (Aventis Pharma S.A., priority 2005, dated 2012).
